Laboratory results reported in US4757139A, “5-fluoro-2'-deoxyuridine derivative, processes for preparing same and antitumor composition containing the same” (Teijin Limited, priority 1983, dated 1988).
Where two headings read alike, the source gives them in different places.

Assays:
[1] = test system: mouse leukemia cells L1210; assay: Antitumor activity against mouse leukemia L1210, intraperitoneal administration; settings: for Max. ILS (%) / ILS30 (dose required to increase lifespan 30%): i.p. once a day for 5 consecutive days
Text: Antitumor activity of 5-fluoro-2'-deoxyuridine derivatives (in intraperitoneal administration)
Experiments were made with the 5-fluoro-2'-deoxyuridine derivatives of this invention in order to know its antitumor effect against mouse leukemia cells L1210 in comparison with its parent compound 5-fluoro-2'-deoxyuridine and other known antitumor agents.
BDF1 mice (male, 6-week-old, Ca 24 g, in groups of 5 mice), which were abdominally implanted with 10^5 cells of mouse leukemia L1210, which had been collected after 7-day cultivation in other mice, were used in the experiments.
The respective agents were given to the experimental mice intraperitoneally once a day for 5 consecutive days starting 24 hours after the implantation of tumor cells.
The antitumor effect of the respective agents were indicated by the rate of increase in the length of the survival period obtained from the groups given the agents in contrast with the length of the survival period of the control group (not given the agents).
The dose, which is required to increase the lifespan of the experimental mice 30% as compared with the control group, is indicated by ILS30 and the dose, which is required to effect the maximum increase of lifespan (Max. ILS(%)), is indicated by ILS max. ILS max./ILS30 is to represent the therapeutic index which indicates the safety of the agents.

[2] = Rate of hydrolysis of 5-fluoro-2'-deoxyuridine derivatives by esterase; assay type: in vitro ADME, porcine; settings: pig, liver esterase, pH 7.00, 37° C., read-out: t 1/2 (time for 1/2 of the derivative to be converted into parent compound)
Protocol: Rate of hydrolysis of 5-fluoro-2'-deoxyuridine derivatives by esterase […] A 10 μg/ml isotonic solution of the experimental compound in a phosphate buffer (pH 7.00) was prepared and the […] (manufactured by Sigma) extracted from the porcine liver was added to the solution at 37° C. in such a way as to provide the enzyme concentration ranging from 0.03 units/ml to 150 units/ml. Then the sample (10 μl) was injected into an HPLC column periodically to determine the amount of 5-fluoro-2'-deoxyuridine release by the enzyme reaction.

mouse leukemia L1210 = assay: Antitumor activity against mouse leukemia L1210, oral administration; assay type: in vivo, BDF1 mice; settings: for Antitumor effect in oral administration compared with 5-fluoro-2'-deoxyuridine and 3',5'-dioctanoyl-5-fluoro-2'-deoxyuridine: L1210-bearing mice, result in words
Protocol: (§1) The respective agents were administered orally three times, i.e. on the first day, third day, and fifth day, starting 24 hours after the implantation of tumor cells.

[3] = Change in body weight of L1210-bearing mice, oral administration; assay type: in vivo, BDF1 mice; settings: days 1-4
Protocol: as §1

[4] = Release of FUdR from the compound due to the enzyme system in the plasma; assay type: in vitro ADME; settings: 4×10^-5 M compound (FUdR 9.85 μg/ml), 20% rat plasma, pH 7.0, 37° C.
Protocol: Behavior to release FUdR from the compound due to the enzyme system in the plasma
The release rates of 5-fluoro-2'-deoxyuridine (FUdR) from the compound of this invention at 37° C. in the rat plasma (20%), diluted with 0.1M phosphate buffer, pH 7.0, were measured.
The compound of this invention was added to the plasma diluted with an isotonic solution of phosphate buffer to a concentration of 4×10^-5 M (corresponding to FUdR 9.85 μg/ml) and was incubated at 37° C. The sample (10 μl) was injected into an HPLC column periodically to determine the amount (μg/ml) of 5-fluoro-2'-deoxyuridine released by the enzymatic reaction.

[5] = pH 7, enzyme concentration 6.0 units/ml
[6] = days 1, 3, 5, dose 10 mg/kg/day
[7] = days 1, 3, 5, dose 30 mg/kg/day
[8] = days 1, 3, 5, dose 100 mg/kg/day
[9] = days 1, 3, 5, dose 300 mg/kg/day
[10] = pH 7, enzyme concentration 150.0 units/ml
[11] = pH 7, enzyme concentration 0.045 units/ml

| Release rate of 5-fluoro-2'-deoxyuridine ([4]; after 100 min) | Compound | Max. ILS (%) ([1]; L1210-bearing BDF1 mice) | Therapeutic index (ILS max./ILS30) ([1]; mouse, in vivo, ip) | ILS30 (dose required to increase lifespan 30%) ([1]; L1210-bearing BDF1 mice) | ILS (%) (mouse leukemia L1210; [6]) | ILS (%) (mouse leukemia L1210; [7]) | ILS (%) (mouse leukemia L1210; [8]) | ILS (%) (mouse leukemia L1210; [9]) | Change in body weight (1-4 d, g/mouse) ([3]; dose 10 mg/kg/day) | Change in body weight (1-4 d, g/mouse) ([3]; dose 30 mg/kg/day) | Change in body weight (1-4 d, g/mouse) ([3]; dose 100 mg/kg/day) | Change in body weight (1-4 d, g/mouse) ([3]; dose 300 mg/kg/day) | also measured |
| --- | --- | --- | --- | --- | --- | --- | --- | --- | --- | --- | --- | --- | --- |
| 4.7 µg/mL | CCCCCCCCCC(=O)OC[C@H]1O[C@@H](n2cc(F)c(=O)[nH]c2=O)C[C@@H]1OC(=O)CCCCCCCCC [3',5'-didecanoyl-5-fluoro-2'-deoxyuridine] | 52% | 10.0 | 18 µmol·days/kg | 7% | 26% | 15% | 20% | -0.8 g/mouse | -1.4 g/mouse | -2.4 g/mouse | -3.8 g/mouse | Antitumor effect in oral administration compared with 5-fluoro-2'-deoxyuridine and 3',5'-dioctanoyl-5-fluoro-2'-deoxyuridine (mouse leukemia L1210): much higher antitumor effect; half-life ([2]; pH 7, enzyme concentration 0.3 units/ml): 140 min; half-life ([2]; pH 7, enzyme concentration 0.6 units/ml): 72 min; Release rate of 5-fluoro-2'-deoxyuridine ([4]; after 200 min): 6.7 µg/mL; Release rate of 5-fluoro-2'-deoxyuridine ([4]; after 300 min): 7.8 µg/mL; Release rate of 5-fluoro-2'-deoxyuridine ([4]; after 400 min): 8.5 µg/mL; Release rate of 5-fluoro-2'-deoxyuridine ([4]; after 500 min): 9.3 µg/mL |
| 1.2 µg/mL | CCCCCCCCCCCC(=O)OC[C@H]1O[C@@H](n2cc(F)c(=O)[nH]c2=O)C[C@@H]1OC(=O)CCCCCCCCCCC [3',5'-didodecanoyl-5-fluoro-2'-deoxyuridine] | 62% | 45.0 | 1.0 µmol·days/kg | 0% | 5% | 15% | 40% | +1.0 g/mouse | +1.0 g/mouse | 0 g/mouse | -2.6 g/mouse | Antitumor effect in oral administration compared with 5-fluoro-2'-deoxyuridine and 3',5'-dioctanoyl-5-fluoro-2'-deoxyuridine (mouse leukemia L1210): much higher antitumor effect; half-life [2, 10]: 4000 min; Release rate of 5-fluoro-2'-deoxyuridine ([4]; after 200 min): 2.2 µg/mL; Release rate of 5-fluoro-2'-deoxyuridine ([4]; after 300 min): 2.9 µg/mL; Release rate of 5-fluoro-2'-deoxyuridine ([4]; after 400 min): 3.8 µg/mL; Release rate of 5-fluoro-2'-deoxyuridine ([4]; after 500 min): 4.2 µg/mL |
| 7.8 µg/mL | CCCCCC(=O)OC[C@H]1O[C@@H](n2cc(F)c(=O)[nH]c2=O)C[C@@H]1OC(=O)CCCCC [3',5'-dihexanoyl-5-fluoro-2'-deoxyuridine, reference compound] | 38% | 4.3 | 10 µmol·days/kg | – | – | – | – | – | – | – | – | half-life [2, 11]: 32.5 min; half-life ([2]; pH 7, enzyme concentration 0.075 units/ml): 24 min; half-life ([2]; pH 7, enzyme concentration 0.15 units/ml): 10 min; Release rate of 5-fluoro-2'-deoxyuridine ([4]; after 200 min): 9.85 µg/mL |
| 9.85 µg/mL | CCCCCCCC(=O)OC[C@H]1O[C@@H](n2cc(F)c(=O)[nH]c2=O)C[C@@H]1OC(=O)CCCCCCC [3',5'-dioctanoyl-5-fluoro-2'-deoxyuridine, reference compound] | – | – | – | -5% | 3% | -5% | 5% | +1.8 g/mouse | +1.6 g/mouse | -2.8 g/mouse | -2.2 g/mouse | half-life ([2]; pH 7, enzyme concentration 0.03 units/ml): 18.2 min; half-life [2, 11]: 15.6 min |

More lines, now with the values behind:

| Compound | Release rate of 5-fluoro-2'-deoxyuridine ([4]; after 100 min) | Max. ILS (%) ([1]; L1210-bearing BDF1 mice) | Therapeutic index (ILS max./ILS30) ([1]; mouse, in vivo, ip) | ILS30 (dose required to increase lifespan 30%) ([1]; L1210-bearing BDF1 mice) | ILS (%) (mouse leukemia L1210; [6]) | ILS (%) (mouse leukemia L1210; [7]) | ILS (%) (mouse leukemia L1210; [8]) | ILS (%) (mouse leukemia L1210; [9]) | Change in body weight (1-4 d, g/mouse) ([3]; dose 10 mg/kg/day) | Change in body weight (1-4 d, g/mouse) ([3]; dose 30 mg/kg/day) | Change in body weight (1-4 d, g/mouse) ([3]; dose 100 mg/kg/day) | Change in body weight (1-4 d, g/mouse) ([3]; dose 300 mg/kg/day) | also measured |
| --- | --- | --- | --- | --- | --- | --- | --- | --- | --- | --- | --- | --- | --- |
| O=C(O)CCCCC(=O)OC[C@H]1O[C@@H](n2cc(F)c(=O)[nH]c2=O)C[C@@H]1OC(=O)CCCCC(=O)O [3',5'-diadipoyl-5-fluoro-2'-deoxyuridine] | – | 58% | 20.0 | – | – | – | – | – | – | – | – | – | half-life [2, 5]: 439 min; half-life ([2]; pH 7, enzyme concentration 12.0 units/ml): 216 min |
| CCCC(=O)OC[C@H]1O[C@@H](n2cc(F)c(=O)[nH]c2=O)C[C@@H]1OC(=O)CCC [3',5'-dibutyryl-5-fluoro-2'-deoxyuridine] | – | – | – | – | – | – | – | – | – | – | – | – | half-life ([2]; pH 7, enzyme concentration 0.75 units/ml): 42.4 min; half-life ([2]; pH 7, enzyme concentration 1.50 units/ml): 21.7 min |
| O=C(O)CCCC(=O)OC[C@H]1O[C@@H](n2cc(F)c(=O)[nH]c2=O)C[C@@H]1OC(=O)CCCC(=O)O [3',5'-diglutaryl-5-fluoro-2'-deoxyuridine] | – | – | – | – | – | – | – | – | – | – | – | – | half-life [2, 10]: 437 min |
| CCCCCCCCCCCCCCCC(=O)OC[C@H]1O[C@@H](n2cc(F)c(=O)[nH]c2=O)C[C@@H]1OC(=O)CCCCCCCCCCCCCCC [3',5'-dipalmitoyl-5-fluoro-2'-deoxyuridine, reference compound] | – | 55% | 5.0 | 0.8 µmol·days/kg | – | – | – | – | – | – | – | – | – |
| CCC(=O)OC[C@H]1O[C@@H](n2cc(F)c(=O)[nH]c2=O)C[C@@H]1OC(=O)CC [3',5'-dipropanoyl-5-fluoro-2'-deoxyuridine] | – | – | – | – | – | – | – | – | – | – | – | – | half-life ([2]; pH 7, enzyme concentration 3.0 units/ml): 47.4 min; half-life [2, 5]: 24.2 min |
| O=C(O)CCC(=O)OC[C@H]1O[C@@H](n2cc(F)c(=O)[nH]c2=O)C[C@@H]1OC(=O)CCC(=O)O [3',5'-disuccinyl-5-fluoro-2'-deoxyuridine] | – | – | – | – | – | – | – | – | – | – | – | – | half-life [2, 10]: 3220 min |
| CCCCCCCCCCCCCC(=O)OC[C@H]1O[C@@H](n2cc(F)c(=O)[nH]c2=O)C[C@@H]1OC(=O)CCCCCCCCCCCCC [3',5'-ditetradecanoyl-5-fluoro-2'-deoxyuridine] | – | 61% | – | – | 27% | 33% | 17% | – | -0.8 g/mouse | -1.4 g/mouse | -2.4 g/mouse | – | Antitumor effect in oral administration compared with 5-fluoro-2'-deoxyuridine and 3',5'-dioctanoyl-5-fluoro-2'-deoxyuridine (mouse leukemia L1210): much higher antitumor effect; ILS (%) (mouse leukemia L1210; days 1, 3, 5, dose 1 mg/kg/day): 3%; ILS (%) (mouse leukemia L1210; days 1, 3, 5, dose 3 mg/kg/day): 3%; Change in body weight (1-4 d, g/mouse) ([3]; dose 1 mg/kg/day): +2.2 g/mouse; Change in body weight (1-4 d, g/mouse) ([3]; dose 3 mg/kg/day): +2.0 g/mouse |
| O=c1[nH]c(=O)n([C@H]2C[C@H](O)[C@@H](CO)O2)cc1F [5-fluoro-2'-deoxyuridine] | – | 54% | – | 200 µmol·days/kg | 15% | 10% | 15% | 10% | +0.6 g/mouse | +1.8 g/mouse | -4.2 g/mouse | -5.2 g/mouse | Therapeutic index (ILS max./ILS30) ([1]; i.p., L1210-bearing BDF1 mice): 2.0 |
